Data reported in article PMC6219798, “A novel decarboxylating amidohydrolase involved in avoiding metabolic dead ends during cyanuric acid catabolism in Pseudomonas sp. strain ADP” (PLoS ONE, 2018).
One block for each compound: values may come before it.

What was measured:
AtzEG = biological target: T1, AtzEG (Pseudomonas sp. ADP, UniProt Q936X3); test: GDH-coupled ammonia release at […] nm; assay type: biochemical; conditions: substrate made in situ by AtzD from 1 mM cyanuric acid; 0.17 uM enzyme, 25 mM potassium phosphate pH 8.5
T1 construct: gene atzE; AtzE and AtzG co-expressed from pACYCDuet-1 in E. coli BL21(DE3); heterotetramer; with 1-carboxybiuret hydrolase subunit AtzG
T1 sequence (Q936X3 1-457): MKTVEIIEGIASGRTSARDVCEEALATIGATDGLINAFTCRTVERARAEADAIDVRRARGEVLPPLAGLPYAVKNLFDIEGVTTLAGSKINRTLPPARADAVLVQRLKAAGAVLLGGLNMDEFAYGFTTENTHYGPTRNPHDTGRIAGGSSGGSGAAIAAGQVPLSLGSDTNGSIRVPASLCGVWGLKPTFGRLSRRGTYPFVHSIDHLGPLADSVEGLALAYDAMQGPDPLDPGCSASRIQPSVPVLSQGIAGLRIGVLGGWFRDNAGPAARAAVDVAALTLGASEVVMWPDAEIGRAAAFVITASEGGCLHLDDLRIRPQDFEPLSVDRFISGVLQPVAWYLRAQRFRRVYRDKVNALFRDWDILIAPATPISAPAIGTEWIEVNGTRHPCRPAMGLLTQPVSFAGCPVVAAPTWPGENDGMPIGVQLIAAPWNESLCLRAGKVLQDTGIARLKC
T1 sequence (A0A384E126 1-68 partner): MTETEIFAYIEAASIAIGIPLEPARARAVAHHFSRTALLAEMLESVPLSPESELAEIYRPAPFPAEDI

AtzD = biological target: T2, AtzD (Pseudomonas sp. ADP, UniProt P58329); test: UV absorbance at […] nm, ring opening; assay type: biochemical; conditions: 12 uM AtzD, 1 mM cyanuric acid
T2 construct: His6-tagged, E. coli BL21(DE3), Ni-NTA purified; cloning described elsewhere
T2 sequence (P58329 1-363): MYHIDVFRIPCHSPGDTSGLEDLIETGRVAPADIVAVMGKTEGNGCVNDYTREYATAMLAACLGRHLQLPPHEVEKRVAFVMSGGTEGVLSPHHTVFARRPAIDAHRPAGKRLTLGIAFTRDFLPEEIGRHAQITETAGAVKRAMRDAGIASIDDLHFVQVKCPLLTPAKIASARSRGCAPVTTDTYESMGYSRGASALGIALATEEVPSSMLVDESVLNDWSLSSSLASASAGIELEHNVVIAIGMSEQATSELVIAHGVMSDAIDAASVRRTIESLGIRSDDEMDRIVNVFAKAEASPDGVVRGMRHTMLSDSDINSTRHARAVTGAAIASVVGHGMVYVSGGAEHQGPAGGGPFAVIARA

[1] = biological target: AtzH from Pseudomonas sp. strain ADP, his-tag removed (Pseudomonas sp. strain ADP); test: SEC; size exclusion chromatography of AtzH after removal of the his-tag; Superdex preparation grade resin, 130 mL column, 25 mM HEPES, 200 mM NaCl, pH 7.5

Compound: NC(=O)NC(=O)NC(=O)O [1-carboxybiuret]
- GDH-coupled ammonia release at 340 nm (AtzEG): The substrate for AtzEG (1-carboxybiuret) is unstable and was therefore produced in situ

Compound: O=c1[nH]c(=O)[nH]c(=O)[nH]1 [cyanuric acid, 1,3,5-triazine-2,4,6-triol]
- UV absorbance at 214 nm, ring opening (AtzD): incubating AtzD and its substrate in the presence or absence of AtzH

- stoichiometry N [1]: 2
Compound: AtzH from Pseudomonas sp. strain ADP, his-tag removed (enzyme)
